Data: the NIST ThermoML archive (doi:10.1016/j.jct.2010.04.013)

Test: mn = molality of the nth substance listed, in mol/kg
Conditions: 101 kPa, Liquid; for mass density: Vibrating tube method; for speed of sound: Pulse-echo method

[Ca+2].[O-][Cl+3]([O-])([O-])[O-].[O-][Cl+3]([O-])([O-])[O-] [calcium diperchlorate] + C[S+](C)[O-]
Conditions | mass density, 293.15 K [kg/m3] | mass density, 298.15 K [kg/m3] | mass density, 303.15 K [kg/m3] | mass density, 313.15 K [kg/m3] | mass density, 323.15 K [kg/m3] | mass density, 333.15 K [kg/m3] | speed of sound, 298.15 K [m/s]
m1 = 0.01996 | 1103.64 | 1098.63 | 1093.62 | 1083.61 | 1073.6 | 1063.59 | –
m1 = 0.02505 | 1104.52 | 1099.51 | 1094.5 | 1084.5 | 1074.49 | 1064.5 | –
m1 = 0.03085 | 1105.52 | 1100.51 | 1095.51 | 1085.52 | 1075.52 | 1065.54 | 1486.8
m1 = 0.03807 | 1106.77 | 1101.77 | 1096.77 | 1086.78 | 1076.8 | 1066.82 | 1487.3
m1 = 0.0488 | 1108.62 | 1103.63 | 1098.64 | 1088.67 | 1078.7 | 1068.74 | 1488.2
m1 = 0.06089 | 1110.72 | 1105.73 | 1100.74 | 1090.8 | 1080.86 | 1070.91 | 1489.3
m1 = 0.07827 | 1113.74 | 1108.77 | 1103.81 | 1093.88 | 1083.96 | 1074.05 | 1490.8
m1 = 0.1006 | 1117.66 | 1112.7 | 1107.75 | 1097.85 | 1087.97 | 1078.08 | 1492.6
m1 = 0.1214 | 1121.33 | 1116.39 | 1111.45 | 1101.58 | 1091.73 | 1081.88 | 1494.5
m1 = 0.1417 | 1124.92 | 1119.99 | 1115.06 | 1105.22 | 1095.39 | 1085.57 | 1496.2
m1 = 0.1651 | 1129.07 | 1124.16 | 1119.25 | 1109.44 | 1099.65 | 1089.87 | 1498.2
m1 = 0.1858 | 1132.79 | 1127.88 | 1122.99 | 1113.2 | 1103.45 | 1093.69 | 1500.1

C[S+](C)[O-] [dimethyl sulfoxide] + O=S(=O)([O-])C(F)(F)F.O=S(=O)([O-])C(F)(F)F.[Be+2]
m2 = 0
Conditions | mass density [kg/m3]
293.15 K | 1100.21
298.15 K | 1095.18
303.15 K | 1090.16
313.15 K | 1080.11
323.15 K | 1070.07
333.15 K | 1060.03

C[S+](C)[O-] [dimethyl sulfoxide] + O=S(=O)([O-])C(F)(F)F.[Na+]
m2 = 0
Conditions | mass density [kg/m3]
293.15 K | 1100.21
298.15 K | 1095.18
303.15 K | 1090.16
313.15 K | 1080.11
323.15 K | 1090.07
333.15 K | 1080.03

C[S+](C)[O-] [dimethyl sulfoxide] + [Ba+2].[O-][Cl+3]([O-])([O-])[O-].[O-][Cl+3]([O-])([O-])[O-]
m2 = 0
Conditions | mass density [kg/m3]
293.15 K | 1100.21
298.15 K | 1095.18
303.15 K | 1090.16
313.15 K | 1080.12
323.15 K | 1070.08
333.15 K | 1060.02

C[S+](C)[O-] [dimethyl sulfoxide] + [Ca+2].[O-][Cl+3]([O-])([O-])[O-].[O-][Cl+3]([O-])([O-])[O-]
m2 = 0
Conditions | mass density [kg/m3]
293.15 K | 1100.21
298.15 K | 1095.18
303.15 K | 1090.16
313.15 K | 1080.12
323.15 K | 1070.08
333.15 K | 1060.02

C[S+](C)[O-] [dimethyl sulfoxide] + [Mg+2].[O-][Cl+3]([O-])([O-])[O-].[O-][Cl+3]([O-])([O-])[O-]
m2 = 0
Conditions | mass density [kg/m3]
293.15 K | 1100.21
298.15 K | 1095.18
303.15 K | 1090.16
313.15 K | 1080.12
323.15 K | 1070.08
333.15 K | 1060.02

C[S+](C)[O-] [dimethyl sulfoxide] + [O-][Cl+3]([O-])([O-])[O-].[O-][Cl+3]([O-])([O-])[O-].[Sr+2]
m2 = 0
Conditions | mass density [kg/m3]
293.15 K | 1100.22
298.15 K | 1095.18
303.15 K | 1090.17
313.15 K | 1080.12
323.15 K | 1070.08
333.15 K | 1060.03

[Mg+2].[O-][Cl+3]([O-])([O-])[O-].[O-][Cl+3]([O-])([O-])[O-] [magnesium perchlorate] + CO
Conditions | mass density, 283.15 K [kg/m3] | mass density, 288.15 K [kg/m3] | mass density, 293.15 K [kg/m3] | mass density, 298.15 K [kg/m3] | mass density, 303.15 K [kg/m3] | mass density, 308.15 K [kg/m3] | mass density, 313.15 K [kg/m3] | speed of sound, 298.15 K [m/s]
m1 = 0.05219 | 809.719 | 805.077 | 800.41 | 795.738 | 791.047 | 786.336 | 781.598 | 1109.9
m1 = 0.06927 | 812.714 | 808.079 | 803.422 | 798.76 | 794.077 | 789.377 | 784.647 | 1112.6
m1 = 0.08495 | 815.487 | 810.862 | 806.214 | 801.554 | 796.877 | 792.189 | 787.47 | 1115.2
m1 = 0.1015 | 818.369 | 813.747 | 809.112 | 804.466 | 799.801 | 795.117 | 790.405 | 1117.5
m1 = 0.1173 | 821.156 | 816.545 | 811.914 | 807.277 | 802.62 | 797.944 | 793.24 | 1120
m1 = 0.1339 | 824.082 | 819.477 | 814.852 | 810.224 | 805.578 | 800.91 | 796.216 | 1122.5
m1 = 0.1663 | 829.827 | 825.238 | 820.63 | 816.008 | 811.382 | 806.732 | 802.054 | 1127.2
m1 = 0.1999 | 835.828 | 831.249 | 826.659 | 822.059 | 817.443 | 812.807 | 808.147 | 1132.5
m1 = 0.2312 | 841.439 | 836.878 | 832.301 | 827.71 | 823.106 | 818.493 | 813.847 | 1137.2
m1 = 0.2628 | 847.212 | 842.663 | 838.096 | 833.522 | 828.937 | 824.333 | 819.703 | 1142
m1 = 0.2917 | 852.468 | 847.932 | 843.38 | 838.819 | 834.243 | 829.645 | 825.025 | 1146.5
m1 = 0.3234 | 858.304 | 853.784 | 849.245 | 844.698 | 840.139 | 835.559 | 830.96 | 1151.8

[Mg+2].[O-][Cl+3]([O-])([O-])[O-].[O-][Cl+3]([O-])([O-])[O-] [magnesium perchlorate] + C[S+](C)[O-]
Conditions | mass density, 293.15 K [kg/m3] | mass density, 298.15 K [kg/m3] | mass density, 303.15 K [kg/m3] | mass density, 313.15 K [kg/m3] | mass density, 323.15 K [kg/m3] | mass density, 333.15 K [kg/m3] | speed of sound, 298.15 K [m/s]
m1 = 0.02171 | 1103.82 | 1098.81 | 1093.8 | 1083.79 | 1073.79 | 1063.78 | –
m1 = 0.03119 | 1105.4 | 1100.4 | 1095.39 | 1085.4 | 1075.41 | 1065.42 | 1486.8
m1 = 0.04163 | 1107.14 | 1102.15 | 1097.16 | 1087.18 | 1077.2 | 1067.23 | 1487.7
m1 = 0.05295 | 1109.04 | 1104.04 | 1099.06 | 1089.1 | 1079.15 | 1069.19 | 1488.7
m1 = 0.06473 | 1111.01 | 1106.03 | 1101.06 | 1091.11 | 1081.18 | 1071.25 | 1489.7
m1 = 0.08226 | 1113.97 | 1109 | 1104.04 | 1094.12 | 1084.21 | 1074.31 | 1491.1
m1 = 0.1041 | 1117.67 | 1112.71 | 1107.76 | 1097.88 | 1088 | 1078.12 | 1493
m1 = 0.1277 | 1121.69 | 1116.74 | 1111.81 | 1101.96 | 1092.12 | 1082.29 | 1494.8
m1 = 0.1481 | 1125.19 | 1120.27 | 1115.34 | 1105.52 | 1095.7 | 1085.9 | 1496.7
m1 = 0.1734 | 1129.53 | 1124.62 | 1119.72 | 1109.94 | 1100.17 | 1090.39 | 1498.8
m1 = 0.1952 | 1133.31 | 1128.4 | 1123.52 | 1113.77 | 1104.03 | 1094.3 | 1500.8

CO [methanol] + O=S(=O)([O-])C(F)(F)F.O=S(=O)([O-])C(F)(F)F.[Be+2]
m2 = 0
Conditions | mass density [kg/m3]
283.15 K | 800.552
288.15 K | 795.874
293.15 K | 791.179
298.15 K | 786.469
303.15 K | 781.742
308.15 K | 776.993
313.15 K | 772.216

CO [methanol] + O=S(=O)([O-])C(F)(F)F.[Na+]
m2 = 0
Conditions | mass density [kg/m3]
283.15 K | 800.544
288.15 K | 795.854
293.15 K | 791.158
298.15 K | 786.447
303.15 K | 781.714
308.15 K | 776.97
313.15 K | 772.195

CO [methanol] + [Ba+2].[O-][Cl+3]([O-])([O-])[O-].[O-][Cl+3]([O-])([O-])[O-]
m2 = 0
Conditions | mass density [kg/m3]
283.15 K | 800.555
288.15 K | 795.877
293.15 K | 791.18
298.15 K | 786.468
303.15 K | 781.739
308.15 K | 776.993
313.15 K | 772.219

CO [methanol] + [Ca+2].[O-][Cl+3]([O-])([O-])[O-].[O-][Cl+3]([O-])([O-])[O-]
m2 = 0
Conditions | mass density [kg/m3]
283.15 K | 800.54
288.15 K | 795.862
293.15 K | 791.168
298.15 K | 786.458
303.15 K | 781.732
308.15 K | 776.98
313.15 K | 772.203

CO [methanol] + [Mg+2].[O-][Cl+3]([O-])([O-])[O-].[O-][Cl+3]([O-])([O-])[O-]
m2 = 0
Conditions | mass density [kg/m3]
283.15 K | 800.542
288.15 K | 795.864
293.15 K | 791.17
298.15 K | 786.46
303.15 K | 781.735
308.15 K | 776.985
313.15 K | 772.206

CO [methanol] + [O-][Cl+3]([O-])([O-])[O-].[O-][Cl+3]([O-])([O-])[O-].[Sr+2]
m2 = 0
Conditions | mass density [kg/m3]
283.15 K | 800.547
288.15 K | 795.856
293.15 K | 791.16
298.15 K | 786.447
303.15 K | 781.721
308.15 K | 776.973
313.15 K | 772.194
